Source: paper PMC4389562, “Antigiardial activity of novel triazolyl-quinolone-based chalcone derivatives: when oxygen makes the difference” (Frontiers in Microbiology, 2015)
Like-named read-outs stand apart in the source and are kept apart here.

Assays:
Caco-2 cells = test: Counter-screen on Caco-2 cells, ATP level by luminescence (ATPlite), 48 h incubation; assay type: cell-based, human; details: atmospheric O2, 5% CO2, 48 h, 37 °C
Experimental: Trophozoites of G. intestinalis strain WB clone C6 (ATCC No. 50803TM) were cultured axenically at 37^∘C in 25-cm^2 flasks containing Diamond’s TYI-S-33 medium supplemented with 10% bovine calf serum, 1 mg/mL bovine bile, 0.1 g/L streptomycin and 100 U/mL penicillin. […] Human epithelial colorectal adenocarcinoma (Caco-2) cells were grown in 25-cm^2 flasks in EMEM supplemented with 1% (v/v) non-essential amino acids, 2 mM glutamine, 5% (v/v) fetal bovine serum, 0.1 g/L streptomycin, and 100 U/mL penicillin.
Cells were detached with 0.5% trypsin-EDTA and seeded in sterile 96-well white clear-bottom plates at the same density of Giardia trophozoites and at increasing concentration of the compound to be tested, as described above. The assays were carried out exactly as reported for the Giardia trophozoites, except that the plates were incubated (still at 37^∘C) at atmospheric O2 level, 5% CO2, and 95% humidity. Each drug concentration was tested in at least seven replicates. MTZ was used as an internal […] control in the assay. Following 48 h incubation with each compound, according to the manufacturer instructions, 100 μL of the ATPlite^TM luminescence assay system (Perkin Elmer) was added to each well for one-step lysis and ATP level detection by luminescence.
Luminometric data were calibrated using ATP standard curves and normalized to the ATP level measured in control DMSO-treated cells (taken as 100%). The measured ATP level percentage was plotted as a function of the compound concentration and the half-maximal inhibitory concentration (IC50) was obtained by fitting the resulting titration profile to the Hill equation ([Goutelle et al., 2008]). The selectivity index (SI) of the compounds was then calculated as the ratio between the IC50 value measured on human cells over the value determined on Giardia trophozoites (SI = IC50,Caco-2/IC50,Giardia).
Selectivity of the newly synthesized compounds toward Giardia was assessed by running a counter-screen on human epithelial Caco-2 cells. […] This allowed us to calculate the compounds SI, defined as the ratio between the IC50 value measured on human cells over the value determined on Giardia trophozoites.

[1] = tested on: Giardia intestinalis trophozoites; test: Drug susceptibility of Giardia trophozoites, ATP level by luminescence (BacTiter-Glo), 48 h incubation, anaerobic or microaerobic; assay type: cell-based, Giardia intestinalis strain WB clone C6; details: for IC50: 48 h, 37 °C, ATP level; for selectivity ratio at 48 h: human (Caco-2 cells) versus Giardia intestinalis, Caco-2, SI = IC50,Caco-2/IC50,Giardia
Experimental: Trophozoites of G. intestinalis strain WB clone C6 (ATCC No. 50803TM) were cultured axenically at 37^∘C in 25-cm^2 flasks containing Diamond's TYI-S-33 medium supplemented with 10% bovine calf serum, 1 mg/mL bovine bile, 0.1 g/L streptomycin and 100 U/mL penicillin. Typically, 50 ml medium was inoculated with 25 × 10^6 cells and after 2 days cells were harvested by chilling the flasks on ice for 30 min for drug susceptibility assays. […] The assays were performed following the procedure described in [Bahadur et al. (2014)], using sterile 96-well white clear-bottom plates. […] Each drug concentration was tested in at least six replicates. MTZ was used as an internal positive control in the assay. The microtiter plates were then incubated at 37^∘C under anaerobic or microaerobic conditions, ensured by the Anaerocult® A or the Anaerocult® […] (Merck), respectively. […] Following 48 h incubation with the compound to be tested, 100 μL of the BacTiter-Glo^TM Microbial Cell Viability Assay System reagent (Promega) was added to each well for one-step lysis and ATP level detection. Plates were then incubated at room temperature for 15 min and ATP levels finally detected by luminescence on a plate reader (Wallac Victor3 1420 Multilabel Counter, PerkinElmer). Luminometric data were calibrated using ATP standard curves and normalized to the ATP level measured in control DMSO-treated cells (taken as 100%). The measured ATP level percentage was plotted as a function of the compound concentration and the half-maximal inhibitory concentration (IC50) was obtained by fitting the resulting titration profile to the Hill equation ([Goutelle et al., 2008]). The selectivity index (SI) of the compounds was then calculated as the ratio between the IC50 value measured on human cells over the value determined on Giardia trophozoites (SI = IC50,Caco-2/IC50,Giardia). The antigiardial activity of the novel compounds 23-67 was tested under both anaerobic and microaerobic conditions. According to ([Dunn et al., 2010]; [Bahadur et al., 2014]), susceptibility of Giardia trophozoites to increasing concentrations of each compound was assessed based on ATP level determination by luminescence. Dose-response curves for each compound were obtained after 48 h-incubation and compared to the data collected under identical conditions with MTZ, the drug of choice for treatment of giardiasis. […] Typical dose-response curves are shown in Figure 2, whereas the IC50 values measured for the synthetic compounds and MTZ under anaerobic and microaerobic conditions are reported in Table 1. […] Under anaerobic conditions, 18 out of the 45 synthetic compounds were as effective as MTZ or more under identical conditions (see Table 1).

[2] = Giardia duodenalis, anaerobic conditions (Anaerocult A), read-out: Giardia (anaerobiosis) IC50
[3] = Giardia duodenalis, microaerobic conditions (~5% O2, Anaerocult C), read-out: Giardia (microaerobiosis) IC50
[4] = Giardia under anaerobiosis, read-out: Selectivity (IC50,Caco/IC50,Giardia) Anaerobiosis
[5] = Giardia under microaerobiosis, read-out: Selectivity (IC50,Caco/IC50,Giardia) Microaerobiosis
[6] = anaerobic conditions (Anaerocult A), read-out: Giardia (anaerobiosis) IC50

Structure (SMILES)	IC50 (Caco-2 cells; Homo sapiens, Caco-2, 48 h) [nM]	IC50 [1, 2] [nM]	IC50 [1, 3] [nM]	selectivity ratio at 48 h [1, 4]	selectivity ratio at 48 h [1, 5]	melting point [°C]	IC50 (Caco-2 cells) [nM]	Selectivity (IC50,Caco/IC50,Giardia) Anaerobiosis ([1]; SI = IC50,Caco-2/IC50,Giardia, Giardia under anaerobiosis)	Selectivity (IC50,Caco/IC50,Giardia) Microaerobiosis ([1]; SI = IC50,Caco-2/IC50,Giardia, Giardia under microaerobiosis)	IC50 [1, 6] [nM]	IC50 ([1]; microaerobic conditions (~5% O2, Anaerocult C), read-out: Giardia (microaerobiosis) IC50) [nM]	fold more efficient than MTZ against Giardia ([1]; anaerobic conditions, relative to MTZ)
O=C(/C=C/c1cc2ccccc2n(Cc2cn(-c3ccc(F)cc3)nn2)c1=O)c1cccc(F)c1 [Compound 42]	9600	3300	700	2.9	13.7	203 to 205						
COc1ccc(C(=O)/C=C/c2cc3ccccc3n(Cc3cn(-c4ccc(Cl)cc4)nn3)c2=O)cc1 [Compound 58]	19700	≥ 100000	≥ 30000	≤ 0.2	≤ 0.7	210 to 212						
COc1ccc(C(=O)/C=C/c2cc3ccccc3n(Cc3cn(-c4ccc(F)cc4)nn3)c2=O)cc1 [Compound 49]							≥ 50000	≥3	≥38	13000	1300	
COc1ccc(C(=O)/C=C/c2cc3ccccc3n(Cc3cn(-c4ccccc4)nn3)c2=O)cc1 [Compound 67]	≥ 100000	5900	800	≥ 16	≥ 125	215 to 217						
COc1ccccc1C(=O)/C=C/c1cc2ccccc2n(Cc2cn(-c3ccccc3)nn2)c1=O [Compound 65]	≥ 40000	2200 to 3200	400			210 to 212	≥ 50000			1600		
O=C(/C=C/c1cc2ccccc2n(Cc2cn(-c3ccc(F)cc3)nn2)c1=O)c1ccc(Br)cc1 [Compound 45]	16700	1100	500	15.2	33.4	238 to 240						three to fourfold
COc1cccc(C(=O)/C=C/c2cc3ccccc3n(Cc3cn(-c4ccc(C)cc4)nn3)c2=O)c1 [Compound 39]		2900	1300			192 to 194						
O=C(/C=C/c1cc2ccccc2n(Cc2cn(-c3ccccc3)nn2)c1=O)c1ccccc1F [Compound 59]	11200	1900	400	5.9	28	172 to 174						
O=C(/C=C/c1cc2ccccc2n(Cc2cn(-c3ccccc3)nn2)c1=O)c1ccc(Cl)cc1 [Compound 62]	5900	2100	700	2.8	8.4	216 to 218						
O=C(/C=C/c1cc2ccccc2n(Cc2cn(-c3ccc(F)cc3)nn2)c1=O)c1ccc(Cl)cc1 [Compound 44]	7200	1500	1000	4.8	7.2	190 to 192						
Cc1ccc(-n2cc(Cn3c(=O)c(/C=C/C(=O)c4ccc(Br)cc4)cc4ccccc43)nn2)cc1 [Compound 36]	≥ 50000	10700	2300	≥ 4	≥ 21	216 to 218						
